Assay results as given in patent publication US20090057619A1, “Compositions and Visual Perception Changing Methods” (priority 2007, published 2009).

Assays:
[1] = pKa of BTB estimated by spectrophotometric titration in water and in model dishwashing detergent; type: physicochemical
Description: Example of color change—pKa measurements—As outlined in the methods described by Brode (Journal of the American Chemical Society, Vol. 46, pp 581-596, 1924) and Puschett et al (Talanta, Vol. 38, Issue #3, pp 335-338, 1991), the pKa of bromothymol blue (BTB) is estimated in water and a model dishwashing detergent containing approximately 30% surfactant (combination of alkylethoxysulfonate and amine oxide). In the absence of detergent, stock solutions of BTB (6-20 ppm) are first adjusted to a pH of 11-12 and titrated with 1% HCl down to a pH of 4.0. After each pH adjustment the absorbance peak at 617 nm (Abs1) is measured and pKa estimated from the abscissa of the point of inflection. In similar fashion, BTB is added at a 60 ppm level to the dishwashing detergent, diluted 10-100 fold with deionized water and titrated with 1% HCl.

[2] = Ratio of absorbances Abs1:Abs2 as a function of product dilution, pH kept at 9.0; type: physicochemical; conditions: pH 9.0; for Abs1:Abs2: no detergent
Protocol: Example of color change—pH is kept constant upon dilution—As shown in Tables 1 and 2 below, bromothymol blue (BTB) is assessed in representative nil-dye versions of representative hand dishwashing products: a) Dawn® Bleach Alternative, b) Dreft®, and c) nil-dye Fairy® Liquid. In a typical procedure, BTB is directly added to the hand dishwashing detergent (60 ppm BTB) and the visible spectrum monitored (λ=400-700 nm) as a function of product dilution with deionized water. After each dilution, the detergent solution is adjusted to pH 9.0 with 0.1% NaOH and the ratio of absorbances at λmax=615-635 nm (Abs1) and λmax=395-435 nm (Abs2) measured. For comparison, a 60 ppm aqueous solution of BTB is prepared and sequentially diluted with deionized water, the pH again adjusted to 9.0 after each dilution (Table 2).
For the dishwashing detergents containing BTB, the ratio Abs1:Abs2 increases upon dilution, the most significant increase occurring at product concentrations ≦2.5%. […] Absorption measurements for Tables 1 and 2 are made on an HP UV/Visibile 8453 Spectrophotometer (Hewlett-Packard).

[3] = cited from earlier work; for reported pKa: @ 25° C.

Structure (SMILES): Cc1c(C2(c3cc(C(C)C)c(O)c(Br)c3C)OS(=O)(=O)c3ccccc32)cc(C(C)C)c(O)c1Br [BTB, bromothymol blue]
- pKa ([1]; model dishwashing detergent diluted with deionized water, detergent conc 1 %, model dishwashing detergent (approx. 30% surfactant)): 8.2
- pKa ([1]; model dishwashing detergent diluted with deionized water, detergent conc 5 %, model dishwashing detergent (approx. 30% surfactant)): 9
- pKa ([1]; model dishwashing detergent diluted with deionized water, detergent conc 10 %, model dishwashing detergent (approx. 30% surfactant)): 9.4
- pKa ([1]; water without detergent, detergent conc 0 % (water, absence of detergent)): 7.3
- Abs1:Abs2 ([2]; BTB in water 0.3 ppm (product conc. 0.5 %)): 5.00
- Abs1:Abs2 ([2]; BTB in water 0.6 ppm (product conc. 1 %)): 4.68
- Abs1:Abs2 ([2]; BTB in water 1.2 ppm (product conc. 2 %)): 4.14
- Abs1:Abs2 ([2]; BTB in water 2.4 ppm (product conc. 4 %)): 4.59
- Abs1:Abs2 ([2]; BTB in water 3.0 ppm (product conc. 5 %)): 4.37
- Abs1:Abs2 ([2]; BTB in water 3.6 ppm (product conc. 6 %)): 4.52
- Abs1:Abs2 ([2]; BTB in water 4.8 ppm (product conc. 8 %)): 4.35
- Abs1:Abs2 ([2]; BTB in water 6.0 ppm (product conc. 10 %)): 4.47
- Abs1:Abs2 ([2]; BTB in water 7.2 ppm (product conc. 12 %)): 4.31
- Abs1:Abs2 ([2]; BTB in water 9.6 ppm (product conc. 16 %)): 4.29
- Abs1:Abs2 ([2]; BTB in water 10.8 ppm (product conc. 18 %)): 4.23
- Abs1:Abs2 ([2]; BTB in water 12.0 ppm (product conc. 20 %)): 4.16
- change in the ratio Abs1:Abs2 upon dilution ([2]; dilution with deionized water): no significant change
- reported pKa [3]: 7.1
- pKa, literature value [3]: 7.1

Structure (SMILES): Cc1c(C2(c3cc(Br)c(O)c(Br)c3C)OS(=O)(=O)c3ccccc32)cc(Br)c(O)c1Br [bromocresol green]
- reported pKa [3]: 4.7

Structure (SMILES): Cc1cc(C2(c3cc(C)c(O)c(Br)c3)OS(=O)(=O)c3ccccc32)cc(Br)c1O [bromocresol purple]
- reported pKa [3]: 6.3

Structure (SMILES): O=S1(=O)OC(c2cc(Br)c(O)c(Br)c2)(c2cc(Br)c(O)c(Br)c2)c2ccccc21 [bromophenol blue]
- reported pKa [3]: 4.0

Structure (SMILES): Cc1cc(C2(c3cc(C)c(O)c(Br)c3C)OS(=O)(=O)c3ccccc32)c(C)c(Br)c1O [bromoxylenol blue]
- reported pKa [3]: 7.0
